Data from patent publication US8637237B2, “Methods, compositions, and systems for the identification of species-specific or developmental stage-specific insecticides” (The University of North Carolina at Greensboro, priority 2003, dated 2014).

Target: T1, FXR (Rattus norvegicus, UniProt Q62735)
T1 sequence (Q62735 1-469): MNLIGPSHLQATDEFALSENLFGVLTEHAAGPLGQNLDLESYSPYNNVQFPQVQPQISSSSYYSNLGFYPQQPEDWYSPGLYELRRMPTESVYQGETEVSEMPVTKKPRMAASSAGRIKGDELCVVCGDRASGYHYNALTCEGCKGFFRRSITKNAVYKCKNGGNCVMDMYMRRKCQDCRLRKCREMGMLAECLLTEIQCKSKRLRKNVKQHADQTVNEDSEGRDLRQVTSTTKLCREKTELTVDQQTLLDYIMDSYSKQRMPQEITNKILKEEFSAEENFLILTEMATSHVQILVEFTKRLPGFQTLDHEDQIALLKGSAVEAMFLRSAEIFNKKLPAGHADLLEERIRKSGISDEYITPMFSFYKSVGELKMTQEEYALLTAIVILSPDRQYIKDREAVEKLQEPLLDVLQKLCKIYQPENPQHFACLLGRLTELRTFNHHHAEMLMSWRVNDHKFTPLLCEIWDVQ
T1 sequence (P28700 1-467 partner): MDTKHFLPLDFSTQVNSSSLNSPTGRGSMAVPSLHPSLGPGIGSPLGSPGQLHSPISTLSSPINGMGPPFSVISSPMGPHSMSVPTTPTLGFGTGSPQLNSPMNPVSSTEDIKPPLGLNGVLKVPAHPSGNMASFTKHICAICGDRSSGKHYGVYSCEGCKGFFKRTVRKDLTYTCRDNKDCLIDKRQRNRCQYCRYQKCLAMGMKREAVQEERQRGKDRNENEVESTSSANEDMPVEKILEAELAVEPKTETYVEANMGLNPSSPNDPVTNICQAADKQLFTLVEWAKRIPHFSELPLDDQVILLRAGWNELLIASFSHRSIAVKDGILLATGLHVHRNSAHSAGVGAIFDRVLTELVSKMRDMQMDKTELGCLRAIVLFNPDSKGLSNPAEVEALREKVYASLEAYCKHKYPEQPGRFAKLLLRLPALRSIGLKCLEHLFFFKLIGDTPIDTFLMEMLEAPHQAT
Assay: cell-based
Description: These experiments employed a mammalian cell culture system using Chinese hamster ovary cells (CHO) to evaluate the transcriptional function of Drosophila melanogaster EcR and USP using methods described previously (U.S. Patent Application Publication No: 2005/0049230; Henrich et al, 2003). Cells were seeded in 6-well polypropylene culture plates (Falcon) with 10^5 cells per well on the day prior to transfection. Transfection was subsequently performed using either calcium phosphate (Kitareewan et al., 1996, Mol. Biol. Cell, 7:1153-1196) or a GenePorter reagent (Gene Therapy Systems, Inc; San Diego, Calif.) following manufacturer's protocols. Each well received 1.25 μg of (EcRE)5-ΔMTV-CAT (five copies of the hsp27 EcRE inserted into an mouse mammary tumor virus (MTV) promoter upstream of the chloramphenicol acetyltransferase (CAT) gene) or (EcRE)5-ΔMTV-LUC (the same promoter attached to firefly luciferase), 1.25 μg of pCH111 (SV40 early promoter linked to the β-galactosidase gene) to normalize CAT activity, and 0.25 μg of each expression plasmid (EcR, FXR, RXR, USP) that was tested. The cells were incubated with plasmid DNA for seven hours and then washed with 1×PBS. Muristerone A (murA; Alexis Biochemicals) or 20-hydroxyecdysone (20E; Sigma) dissolved in ethanol to a concentration of 10 mM was diluted as necessary to the final assay concentration (FAC) in 2 ml of fresh incubation medium that was then applied to the cells. Similarly, JHIII (Sigma) was dissolved in dimethyl sulfoxide (DMSO) to a concentration of […] and diluted into the incubation medium to its final assay concentration (20, 40, 80, 160 μM). […] A corresponding volume of ethanol and DMSO were added to control cells for all experiments. For all experiments, the cells were allowed to incubate with the medium for 24 hours before collection and cell lysates were prepared by described methods (Kitareewan et al., 1996). Both β-galactosidase and CAT reporter activity were measured based on previously used methods (Kitareewan et al, 1996). Luciferase assays using luciferrin followed the specifications of the manufacturer.
Transcriptional activity, measured as ^14C-chloramphenicol counts (for measuring CAT activity) or relative luciferase activity (RLU) was quantified for each cell lysate. The counts were then normalized by adjusting for differences in β-galactosidase activity, since β-galactosidase expression is controlled by a constitutive promoter and provides an estimate of cell mass. Data were normalized as fold-induction based on differences in reporter gene activity between hormonally treated and control cells.
In these experiments, candidate juvenoids were tested for their ability to activate FXR mediated transcription by transfecting Chinese hamster ovary (CHO) cells using the FXR plasmid, mouse RXRα, and the ΔMTV-(EcRE)5-CAT reporter as described herein. An RXR-dependent CRBPII-CAT reporter plasmid was employed in parallel assays to discern activators specific for this receptor.

[1] = dose 20 μM, 1 = no increase over vehicle

Which “FXR-dependent activity, induction” value (25 μM) does the source give for `CCOCn1c(-c2ccc(Cl)cc2)c(C#N)c(Br)c1C(F)(F)F` [chlorfenapyr] here?
The value was 10 fold.

`CC(C)(O)/C=C/C(=O)[C@](C)(O)[C@H]1[C@H](O)C[C@@]2(C)[C@@H]3CC=C4[C@@H](C[C@H](O)C(=O)C4(C)C)[C@]3(C)C(=O)C[C@]12C` [cucurbitacin D] was tested. Which “suppression of FXR-dependent activity promoted by CDCA” value (1 μM cucurbitacin D, 40 μM CDCA) did it give?
The value was 58 fold.

What about the “suppression of FXR-dependent activity promoted by JH III” value (1 μM cucurbitacin D, 40 μM JH III) of the same compound?
Its value is 7 fold.

With `CC(C)(O)/C=C/C(=O)[C@](C)(O)[C@H]1[C@H](O)C[C@@]2(C)[C@@H]3CC=C4[C@@H](C=C(O)C(=O)C4(C)C)[C@]3(C)C(=O)C[C@]12C` [cucurbitacin I] as the compound, how does the IC50 (read-out: IC50, inhibition of farnesol-induced FXR activity, data not shown) read?
Its IC50 is about 0.05 µM.

For `COc1cc(/C=C/C(=O)CC(=O)/C=C/c2ccc(O)c(OC)c2)ccc1O` [curcumin], which “FXR-dependent activity, induction” value (dose not stated) is on record?
Its value is “ineffective”.

With `CCCC(=O)Nc1ncnc2c1ncn2[C@@H]1O[C@@H]2COP(=O)(O)O[C@H]2[C@H]1OC(=O)CCC` [dibutyryl cAMP] as the compound, how does the “FXR-dependent activity, induction” value (1 mM) read?
Its value is 4 fold.

`C[C@H]([C@H](O)CCC(C)(C)O)[C@H]1CC[C@@]2(O)C3=CC(=O)[C@@H]4C[C@@H](O)[C@@H](O)C[C@]4(C)[C@H]3CC[C@]12C` [ecdysone] was tested. Which “FXR-dependent activity, induction” value (dose not stated) did it give?
Its value is “unresponsive”.

With `C=CC(C)(O)CCCC/C=C(\C)CC(C)=O` (stereo not shown) [echinolone] as the compound, how does the “FXR-dependent activity, maximal induction” value (maximal (highest non-cytotoxic) dose) read?
The value was 7 fold.

Which “FXR-dependent activity, induction” value (0.5 mM) does the source give for `CC12CCC(C1)C(C)(C)C2=O` (stereo not shown) [fenchone] here?
Its value is “inactive”.

`CC12CCC(C1)C(C)(C)C2O` (stereo not shown) [fenchyl alcohol] was tested. Which “FXR-dependent activity, induction” value (0.5 mM) did it give?
The value was 5 fold.

How did the “FXR-dependent activity, induction” value (25 μM) turn out when `N#Cc1nn(-c2c(Cl)cc(C(F)(F)F)cc2Cl)c(N)c1[S+]([O-])C(F)(F)F` (stereo not shown) [fipronil] was run?
The value was 20 fold.

`O=c1c(-c2ccc(O)cc2)coc2cc(O)cc(O)c12` [genistein] was tested. Which “FXR-dependent CAT activity, induction” value (50 μM) did it give?
The value was “unresponsive”.

For `O=c1c(O)c(-c2ccc(O)c(O)c2)oc2c(O)c(O)cc(O)c12` [gossypetin], which “FXR-dependent CAT activity, induction” value (50 μM) is on record?
Its value is “unresponsive”.

`O=c1[nH]cnc2nc[nH]c12` [hypoxanthine] was tested. Which “FXR-dependent activity, induction” value (dose not stated) did it give?
The value was “ineffective”.

For `O=[N+]([O-])NC1=NCCN1Cc1ccc(Cl)nc1` [imidacloprid], which “FXR-dependent activity, induction” value (dose not stated) is on record?
The value was “unaffected”.

How did the “FXR-dependent activity, induction” value (dose not stated) turn out when `COP(=S)(OC)SCN1C(=O)c2ccccc2C1=O` [imidan] was run?
The value was “inactive”.

`CC1=C[C@]23C(=O)[C@@H](C=C(COC(=O)c4ccccc4)[C@@H](O)[C@]2(O)[C@H]1OC(=O)c1ccccc1)[C@H]1[C@@H](C[C@H]3C)C1(C)C` [ingenol-3,20-dibenzoate] was tested. Which “FXR-dependent activity, induction” value (10 μM) did it give?
Its value is 5 fold.

And the “FXR ACTIVITY (fold-induction)” value (dose 10 μM)?
The value was 5 fold-induction.

`CC1=C[C@]23C(=O)[C@@H](C=C(CO)[C@@H](O)[C@]2(O)[C@H]1O)[C@H]1[C@@H](C[C@H]3C)C1(C)C` [ingenol] was tested. Which “FXR-dependent activity, induction” value (dose not stated) did it give?
The value was “inactive”.

With `CC/C=C\C[C@H]1C(=O)CC[C@@H]1CC(=O)O` [jasmonic acid] as the compound, how does the “FXR-dependent activity, induction” value (1 mM) read?
The value was “no effect”.

`COC(=O)C1=CC[C@H]([C@H](C)CC(=O)CC(C)C)CC1` [juvabione] was tested. Which “RXR mediated transcription, increase” value (plant-derived JH agonists examined as FXR effectors) did it give?
Its value is 3 fold.

How did the “FXR ACTIVITY (fold-induction)” value [1] turn out when `C[C@@]12C=Cc3occc3[C@H]1CC[C@@]13C[C@@H](CC[C@H]12)[C@@](O)(CO)C3` [kahweol] was run?
The value was 10 fold-induction.

With `O=C1C2(Cl)C3(Cl)C4(Cl)C(Cl)(Cl)C5(Cl)C3(Cl)C1(Cl)C5(Cl)C24Cl` (stereo not shown) [kepone] as the compound, how does the “FXR-dependent CAT activity, induction” value (5 μM) read?
The value was 12 fold.

Which “FXR-dependent activity, induction” value (400 μM) does the source give for `C=C(C)C1CCC2(C)OC2C1` (stereo not shown) [limonene oxide] here?
Its value is “inactive”.

For `Cl[C@H]1[C@H](Cl)[C@@H](Cl)[C@@H](Cl)[C@H](Cl)[C@H]1Cl` [lindane], which “FXR-dependent CAT activity, induction” value (5 μM) is on record?
The value was 5 fold.

How did the “FXR-dependent activity, induction” value (0.5 mM) turn out when `CC1CCC(C(C)C)C(O)C1` (stereo not shown) [menthol] was run?
Its value is “inactive”.

How did the “FXR-dependent activity, induction” value (1 mM) turn out when `CC/C=C\CC1C(=O)CCC1CC(=O)OC` (stereo not shown) [methyl jasmonate] was run?
Its value is 17 fold.

And the “FXR ACTIVITY (fold-induction)” value (dose 1000 μM)?
The value was 18 fold-induction.

For `C=C(C)[C@@]12O[C@@]3(c4ccccc4)O[C@@H]1[C@@H]1[C@@H]4O[C@]4(CO)[C@@H](O)[C@]4(O)C(=O)C(C)=C[C@H]4[C@@]1(O3)[C@H](C)[C@H]2OC(=O)/C=C/C=C/c1ccccc1` [mezerein], which “FXR-dependent activity, induction” value (10 μM) is on record?
Its value is 3 fold.

For `Clc1ccc(C(c2ccc(Cl)cc2)C(Cl)(Cl)Cl)cc1` [p,p-DDT], which “FXR-dependent CAT activity, induction” value (5 μM) is on record?
Its value is “not”.

Which results are given for `C=C(C)[C@@H]1CC=C(CO)CC1` [perillyl alchol, perillyl alcohol]?
FXR ACTIVITY (fold-induction) (dose 300 μM, 1 = no increase over vehicle): 4 fold-induction; FXR-dependent activity, induction (dose not stated): 4 fold

With `OCCc1ccccc1` [phenethyl alcohol] as the compound, how does the “FXR-dependent activity, induction” value (400 μM) read?
Its value is “inert”.

How did the “FXR-dependent activity, induction” value (25 μM) turn out when `CC(C)=CC1C(C(=O)OCc2cccc(Oc3ccccc3)c2)C1(C)C` (stereo not shown) [phenothrin] was run?
Its value is 8 fold.

With `CCCC(=O)O[C@@H]1[C@@H](C)[C@@]2(O)[C@@H](C=C(CO)C[C@]3(O)C(=O)C(C)=C[C@@H]23)[C@@H]2C(C)(C)[C@]12OC(=O)CCC` [phorbol 12,13-dibutyrate] as the compound, how does the “FXR-dependent activity, induction” value (10 μM) read?
The value was 2 fold.

How did the “FXR-dependent activity, induction” value (0.5 mM) turn out when `CC1(C)[C@@H]2C[C@H]1[C@@](C)(O)[C@@H](O)C2` [pinane diol] was run?
The value was 5 fold.

With `OCc1ccc2c(c1)OCO2` [piperonyl alcohol] as the compound, how does the “FXR-dependent activity, induction” value (dose not stated) read?
The value was “inactive”.

For `O=C(O)c1ccc2c(c1)OCO2` [piperonylic acid], which “FXR-dependent activity, induction” value (dose not stated) is on record?
Its value is “inactive”.

Which “FXR-dependent activity, induction” value (dose not stated) does the source give for `COc1cc2c(cc1OC)OC(C)(C)C=C2` [precocene II] here?
Its value is 15 fold.

And the EC50 (read-out: EC50 for FXR-dependent CAT activity)?
The EC50 was 150 µM.

With `CC(COc1ccc(Oc2ccccc2)cc1)Oc1ccccn1` (stereo not shown) [pyriproxyfen] as the compound, how does the “FXR ACTIVITY (fold-induction)” value (final dose of 50 ∝M, 1 = induction less than 2-fold below cytotoxic doses) read?
Its value is 9 fold-induction.

For `O=C(/C=C/c1ccc(O)c(O)c1)O[C@H](Cc1ccc(O)c(O)c1)C(=O)O` [rosemarinic acid], which “FXR-dependent activity, induction” value (dose not stated) is on record?
Its value is “ineffective”.

Which “FXR ACTIVITY (fold-induction)” value [1] does the source give for `C=C(C)[C@H]1Cc2c(ccc3c2O[C@@H]2COc4cc(OC)c(OC)cc4[C@@H]2C3=O)O1` [rotenone] here?
The value was 1 fold-induction.

What about the “FXR-dependent activity, induction” value (dose not stated) of the same compound?
Its value is “inactive”.

`COc1cc2c(cc1OC)[C@@H]1C(=O)c3ccc(O)c(CC=C(C)C)c3O[C@@H]1CO2` [rotenonic acid] was tested. Which “FXR-dependent CAT activity, induction” value (20 μM) did it give?
Its value is 20 fold.

What about the “FXR ACTIVITY (fold-induction)” value [1] of the same compound?
Its value is 20 fold-induction.
